The values that follow come from ChEMBL document CHEMBL1201862, “PubChem BioAssay data set” (2004).

Some test systems named below: A498; CAKI-1; CCRF-CEM; COLO 205; HOP-92; HT-29; K562; LOX IMVI; LXFL 529; M19-MEL; NCI-H23; OVCAR-4; RXF 393; SK-MEL-28; SK-MEL-2; UO-31; HOP-18.
Assay in all cases: DTP human tumour cell line panel, 48 h

The structures appear in SMILES notation.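 Method: 48-hour compound exposure of cells in 96-well plates, five concentrations, linear interpolation of endpoints. GI50: concentration for 50% inhibition of growth.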 The source made the active and inactive calls. No stated cut-off is given here; in the data, active = GI50 up to about 1.1 µM and inactive = higher.

In general, GI50 refers to the concentration giving 50% growth inhibition.

For the molecule `O=C(/N=C(/Nc1ccccc1)SCCS/C(=N\C(=O)c1ccccc1)Nc1ccccc1)c1ccccc1`, the GI50 with A498 was 58.7 µM (inactive); in the assay on CAKI-1, 33.7 µM (inactive); in the assay with CCRF-CEM it was 64.6 µM (inactive); in the assay on COLO 205 it was > 100 µM (inactive); in the assay with HOP-92, 16.8 µM (inactive); in the assay with HT-29, 35.6 µM (inactive). In addition, the GI50 was 43.6 µM (inactive) with K562; 58.6 µM (inactive) with LOX IMVI; 56.2 µM (inactive) with LXFL 529; 63.5 µM (inactive) in the assay with M19-MEL; 59.8 µM (inactive) in the assay on NCI-H23; 42.1 µM (inactive) in the assay on OVCAR-4. Besides, the GI50 with RXF 393 was 29.6 µM (inactive); in the assay on SK-MEL-28, 49.8 µM (inactive); with SK-MEL-2 it was > 100 µM (inactive); with UO-31 it was 32.9 µM (inactive).

As for `COc1cccc(/C=N/C23CC4CC(CC(C4)C2)C3)c1`, the GI50 with A498, with CAKI-1, with CCRF-CEM, in the assay on COLO 205, in the assay with HOP-92 and in the assay on HT-29 was > 100 µM (inactive) throughout. Further, the GI50 in the assay on K562, in the assay with LOX IMVI, in the assay on M19-MEL, in the assay on NCI-H23, in the assay with OVCAR-4 and in the assay with RXF 393 was > 100 µM (inactive) throughout. Also, the GI50 in the assay on SK-MEL-28, in the assay on SK-MEL-2 and in the assay with UO-31 was > 100 µM (inactive) throughout.

Turning to `O=C1C2C(C(=O)N1Cc1ccccc1)N(Cc1ccccc1)C(=O)N2Cc1ccccc1` (centres undefined), the GI50 with A498, in the assay with CAKI-1, with CCRF-CEM, in the assay on COLO 205, in the assay on HOP-92 and with HT-29 was > 100 µM (inactive) in each case. In addition, the GI50 in the assay with K562, in the assay with LOX IMVI, with LXFL 529, with M19-MEL, in the assay with NCI-H23 and in the assay with OVCAR-4 was > 100 µM (inactive) in each case. For the same molecule, the GI50 with RXF 393, in the assay with SK-MEL-28 and in the assay with UO-31 was > 100 µM (inactive) in each case.

On to `Nc1cccc2c1-c1c(cccc1[N+](=O)[O-])C2=O`, for which the GI50 in the assay with A498, in the assay on CAKI-1, in the assay on CCRF-CEM, in the assay on COLO 205, in the assay on HOP-18 and with HOP-92 was > 100 µM (inactive) in each case. Further, the GI50 in the assay with HT-29, in the assay with K562, in the assay with LOX IMVI, in the assay with M19-MEL, in the assay with NCI-H23 and with OVCAR-4 was > 100 µM (inactive) each time. Moreover, the GI50 in the assay on RXF 393 was > 100 µM (inactive); in the assay with UO-31 it was 0.108 µM (active).

For `CCCCCCCCc1cc2c(O)c(c1)Cc1cc(CCCCCCCC)cc(c1O)Cc1cc(CCCCCCCC)cc(c1O)Cc1cc(CCCCCCCC)cc(c1O)Cc1cc(CCCCCCCC)cc(c1O)Cc1cc(CCCCCCCC)cc(c1O)C2`, the GI50 in the assay with A498, in the assay on CAKI-1, in the assay on CCRF-CEM, in the assay on COLO 205, in the assay with HOP-18 and in the assay with HOP-92 was > 100 µM (inactive) each time. Further, the GI50 in the assay with HT-29, with K562, with LOX IMVI, in the assay on LXFL 529, with NCI-H23 and in the assay with SK-MEL-28 was > 100 µM (inactive) in each case. Also, the GI50 with SK-MEL-2 and with UO-31 was > 100 µM (inactive) in each case.

For the molecule `CC(=O)O[C@H]1CC2C=CC3C(CCC31)O2` (some centres undefined), the GI50 in the assay with CAKI-1, with CCRF-CEM, in the assay with COLO 205, with HOP-18, in the assay with HT-29 and in the assay on K562 was > 100 µM (inactive) throughout. Also, the GI50 in the assay with LOX IMVI, in the assay on LXFL 529, with M19-MEL, with NCI-H23, in the assay on OVCAR-4 and with RXF 393 was > 100 µM (inactive) in each case. The GI50 with SK-MEL-28 and in the assay with UO-31 was > 100 µM (inactive) throughout.

In the case of `O=C1OC(CCCl)(c2ccccc2)CC1CN1CCOCC1` (centres undefined), the GI50 in the assay on A498 was > 100 µM (inactive); in the assay with CAKI-1, 8.49 µM (inactive); in the assay on CCRF-CEM, 11.4 µM (inactive); in the assay on COLO 205, 18.9 µM (inactive); with HOP-92, 16.6 µM (inactive); with HT-29, 18.4 µM (inactive). For the same molecule, the GI50 in the assay on K562 is 14.8 µM (inactive); in the assay on LOX IMVI, 27.3 µM (inactive); in the assay on LXFL 529 it was 18.8 µM (inactive); with M19-MEL, 22.1 µM (inactive); with NCI-H23, 8.95 µM (inactive); in the assay with OVCAR-4, 48.4 µM (inactive). For the same molecule, the GI50 in the assay with RXF 393 was 17.2 µM (inactive); with SK-MEL-28 it was 19.7 µM (inactive); with SK-MEL-2 it was 24.3 µM (inactive); in the assay with UO-31 it was 68.9 µM (inactive).

On to `O=C1Sc2ccccc2C(=O)N2CSCC12` (centres undefined), for which the GI50 with CCRF-CEM, in the assay with COLO 205, with HOP-18, in the assay on HOP-92, in the assay with HT-29 and in the assay with K562 was > 100 µM (inactive) throughout. Besides, the GI50 in the assay with LOX IMVI, in the assay on LXFL 529, with M19-MEL, in the assay on NCI-H23, with RXF 393 and with SK-MEL-28 was > 100 µM (inactive) each time. Moreover, the GI50 in the assay on SK-MEL-2 and in the assay with UO-31 was > 100 µM (inactive) each time.

Take `CCCCC1(C(NC(=O)c2ccccc2Cl)c2ccncc2)C(=O)N(c2ccccc2)N(c2ccccc2)C1=O` (centres undefined): the GI50 in the assay on CCRF-CEM was 27.9 µM (inactive); in the assay on COLO 205, 22.6 µM (inactive); with HOP-18, > 100 µM (inactive); in the assay with HOP-92, 39.6 µM (inactive); in the assay with HT-29, 41.6 µM (inactive); in the assay on K562 it was 33.5 µM (inactive). For the same molecule, the GI50 is 56.9 µM (inactive) in the assay with LOX IMVI; 36.2 µM (inactive) in the assay on LXFL 529; 47.5 µM (inactive) in the assay with M19-MEL; 44.7 µM (inactive) in the assay with NCI-H23; 37.6 µM (inactive) with RXF 393; > 100 µM (inactive) with SK-MEL-28. Also, the GI50 in the assay on SK-MEL-2 is 50.9 µM (inactive); in the assay with UO-31 it was 33 µM (inactive).

Regarding `Cc1cc2c(CC(=O)O)n[nH]c2c(C(=O)O)c1C`, the GI50 in the assay on CCRF-CEM, in the assay with COLO 205, in the assay on HOP-18, in the assay with HOP-92, in the assay with HT-29 and in the assay on LOX IMVI was > 100 µM (inactive) in each case. Moreover, the GI50 in the assay with LXFL 529, with M19-MEL, with NCI-H23, in the assay on RXF 393, in the assay with SK-MEL-28 and in the assay on SK-MEL-2 was > 100 µM (inactive) throughout. Also, in the assay with UO-31, the GI50 was > 100 µM (inactive).

Take `O=c1cc2n(c(=O)[nH]1)C1OC(C(O)C1O)[C@H]2CCO` (some centres undefined): the GI50 in the assay on A498, in the assay on CAKI-1, in the assay on CCRF-CEM, with COLO 205, with HOP-92 and in the assay on HT-29 was > 100 µM (inactive) throughout. For the same molecule, the GI50 with K562, in the assay on LOX IMVI, in the assay on LXFL 529, in the assay with M19-MEL, with NCI-H23 and in the assay on OVCAR-4 was > 100 µM (inactive) throughout. The GI50 in the assay on RXF 393, with SK-MEL-28, with SK-MEL-2 and in the assay on UO-31 was > 100 µM (inactive) throughout.

With `CC(=O)NNc1ncc(C(=O)/C=C/c2ccccc2C)s1`, the GI50 with A498, in the assay with CAKI-1, with CCRF-CEM, in the assay with COLO 205, with HOP-18 and in the assay on HOP-92 was > 100 µM (inactive) each time. For the same molecule, the GI50 with HT-29, in the assay with K562, in the assay with LOX IMVI, in the assay with M19-MEL, in the assay with NCI-H23 and with RXF 393 was > 100 µM (inactive) each time. The GI50 in the assay with SK-MEL-28, in the assay with SK-MEL-2 and with UO-31 was > 100 µM (inactive) in each case.

In the case of `CCC1CCC2CCCC(C)N12` (centres undefined), the GI50 with CAKI-1, in the assay on CCRF-CEM, with COLO 205, with HOP-18, in the assay with HOP-92 and in the assay on K562 was > 100 µM (inactive) in each case. Also, the GI50 in the assay with LXFL 529, in the assay with M19-MEL, in the assay on NCI-H23, in the assay with OVCAR-4, with SK-MEL-28 and in the assay with SK-MEL-2 was > 100 µM (inactive) each time. In addition, in the assay with UO-31, the GI50 was > 100 µM (inactive).
